Measured values reported in paper PMC11627468, “Novel enzyme‐resistant pancreatic polypeptide analogs evoke pancreatic beta‐cell rest, enhance islet cell turnover, and inhibit food intake in mice” (Biofactors (Oxford, England), 2024).
Starred links: 1 amine or outer side, 2 acyl side, 3 side chain; linkers in the order of their positions; H or OH if unused. Residues, ends and D or L forms follow the SMILES beside them. Groups on a side chain read outwards from the residue. No end group written: not given here. *: point of attachment. γGlu = O=C(O)[C@H](CCC(=O)[*:2])N[*:1]; Palmitoyl = CCCCCCCCCCCCCCCC(=O)*

What was measured:
BRIN‐BD11 beta‐cells [1] = assay: Beta‐cell proliferation (Ki‐67 staining); type: cell-based; conditions: versus control cultures, n = 3
Procedure: (§1) To assess the effects of PP and related peptides (10^−8 and 10^−6 M) on beta‐cell proliferation and apoptosis, BRIN‐BD11 beta‐cells were seeded onto sterilized, clear‐glass coverslips (16 mm diameter) and placed in 12‐well plates (Falcon Ltd) at a density of 40,000 cells per well and cultured for 18 h. Media control (11.1 mM glucose), GLP‐1 (10^−8 and 10^−6 M), and a cytokine cocktail mix (IL‐1β [100 U/mL], IFNγ [20 U/mL], TNFα [200 U/mL], Sigma Aldrich, UK) were employed as controls, as appropriate. Cells were then rinsed with PBS and fixed using 4% paraformaldehyde. After antigen retrieval with sodium citrate buffer at 95°C for 20 min, blocking was performed using 2% bovine serum albumin (BSA) for 45 min. For proliferation studies, the slips were then incubated at 37°C with rabbit anti‐Ki‐67 primary antibody (Abcam, ab15580), and subsequently with Alexa Fluor® 488 secondary antibody. Coverslips were mounted onto polylysine‐coated microscope slides using a 50:50 glycerol:PBS solution and stored at 4°C until required for analysis. To assess the ability of PP peptides to protect against cytokine‐induced apoptosis, cells were seeded, washed, and fixed as above, with the exception that the media was supplemented with the cytokine mix. The slips were then incubated at 37°C with TUNEL reaction mix for 60 min (Roche Diagnostics, Germany), and mounted onto microscope slides. To assess receptor specificity, co‐incubation of PP peptides with the well characterized NPY4R antagonist, (S)‐VU0637120,[24] at 10^−5 M was employed for beta‐cell proliferation experiments, conducted as detailed above. All slides were viewed using a fluorescent microscope (Olympus System Microscope, model BX51; Southend‐on‐Sea, UK) and photographed by DP70 camera adapter system. Proliferation/TUNEL positive frequency was determined using the cell‐counter function on ImageJ Software and expressed as % of total cells analyzed.

C57BL/6 mice [2] = assay: Acute food intake in overnight fasted mice; type: in vivo
Procedure: (§2) Acute in vivo studies were conducted in groups (n = 6) of 4‐month‐old male C57BL/6 mice (Envigo, Huntington, UK). All mice were maintained on standard rodent chow (10% fat, 30% protein, and 60% carbohydrate; Trouw Nutrition, Northwich, UK), and drinking water provided ad libitum. Mice were housed individually and kept in a temperature‐controlled environment (22 ± 2°C), with a 12‐h light/dark cycle. Experiments were carried out in accordance with the UK Animal Scientific Procedures Act 1986 as well as being approved by Ulster University Animal Ethics Review Committee (AWERB) committee and protected by the UK Home Office Animal project license number PPL2902, approved on April 26, 2021. Acute effects of test peptides on food intake were tested in overnight (16 h) fasted mice. Briefly, fasted mice were administered an intraperitoneal (i.p.) injection of saline vehicle (0.9% (w/v) NaCl) alone or in combination with test peptides (each at 25, 75, or 200 nmol/kg bw) and cumulative food intake measured at regular intervals, to assess the pharmacodynamic profile of the test peptides. For food intake studies, mice were provided with preweighed rodent maintenance diet in their food hopper at t = 0 min, which was then re‐weighed at each timepoint with all due care taken to account for any wastage or crumbling of the food pellets. In this regard, the investigator was present at all times during the 180‐min test period to ensure accuracy and consistency in all measurements. Furthermore, effects of PP or related peptides (25 nmol/kg bw) on glucose homeostasis and insulin secretion were evaluated in overnight fasted mice following i.p. injection of glucose alone (18 mmol/kg bw) or in combination with PP peptides (each at 25 nmol/kg bw).

DPP-4 = test system: T1, DPP-4; assay: In vitro DPP‐4 degradation; type: in vitro ADME, human; conditions: purified human DPP-4 enzyme; peptide 50 μg with purified human DPP‐4 (5 μL, 0.01 U/L), 37°C, 8 h; stopped with 10% (v/v) trifluoroacetic acid; rp‐HPLC C‐18, UV 214 nm; peaks by MALDI‐MS; read-out: % intact peptide after 8 h DPP‐4 incubation
T1 construct: purchased Sigma-Aldrich
Procedure: PP peptides (50 μg) were incubated at 37°C for 0–8 h with 5 μL of purified human DPP‐4 enzyme (0.01 U/L, Sigma‐Aldrich, Gillingham, UK). Degradation reactions were terminated via the addition of 10 μL 10% (v/v) trifluoroacetic acid/water solution. Reaction mixes were separated by reverse phase rp‐HPLC using a Phenomenex C‐18 analytical column (250 × 4.6 mm^2) with UV absorbance detection at 214 nm (ThermoQuest SpectraSystem UV2000 detector). HPLC peaks of interest were collected and analyzed by MALDI‐TOF MS on a Perseptive Biosystems Voyager‐DE Biospectrometry (Hertfordshire, UK).

C57BL/6 mice [3] = assay: Glucose‐stimulated plasma insulin in mice; type: in vivo; conditions: n = 6; for glucose‐induced insulin secretion (plasma insulin): peptide 25 nmol/kg with glucose 18 mmol/kg i.p., versus glucose control
Procedure: as §2, with “bw). […] Blood glucose was measured immediately using a hand‐held Ascencia Contour blood glucose meter (Bayer Healthcare, Newbury, Berkshire, UK). For plasma insulin, blood was collected in chilled fluoride/heparin‐coated microcentrifuge tubes (Sarstedt, Numbrecht, Germany) and centrifuged using a Beckman microcentrifuge (Beckman Instruments, Galway, Ireland) for 10 min at 12,000 rpm. Plasma was separated and stored at −20°C, until determination of plasma insulin by radioimmunoassay.[23]” for “bw).”

C57BL/6 mice [4] = assay: Glucose tolerance in mice; type: in vivo; conditions: exendin‐4 0.25 nmol/kg or CCK‐8 25 nmol/kg with glucose 18 mmol/kg i.p., versus glucose control; n = 6
Procedure: as §2, with “bw). […] Blood glucose was measured immediately using a hand‐held Ascencia Contour blood glucose meter (Bayer Healthcare, Newbury, Berkshire, UK). […]” for “bw).”

BRIN‐BD11 beta‐cells [5] = assay: Protection against cytokine‐induced beta‐cell apoptosis (TUNEL); type: cell-based; conditions: peptides 10^−8 and 10^−6 M, cytokine cocktail IL‐1β 100 U/mL, IFNγ 20 U/mL, TNFα 200 U/mL, n = 3
Procedure: as §1, with “The slips were then incubated at 37°C with TUNEL reaction mix for 60 min (Roche Diagnostics, Germany), and mounted onto microscope slides. To assess receptor specificity, co‐incubation of PP peptides with the well characterized NPY4R antagonist, (S)‐VU0637120,[24] at 10^−5 M was employed for beta‐cell proliferation experiments, conducted as detailed above. All slides were viewed using a fluorescent microscope (Olympus System Microscope, model BX51; Southend‐on‐Sea, UK) and photographed by DP70 camera adapter system.” left out

CCCCCCCCCCCCCCCC(=O)N[C@@H](CCC(=O)NCCCC[C@H](NC(=O)[C@H](C)NC(=O)[C@H](CC(N)=O)NC(=O)[C@H](CC(=O)O)NC(=O)CNC(=O)[C@@H]1CCCN1C(=O)[C@H](Cc1ccc(O)cc1)NC(=O)[C@@H](NC(=O)[C@@H]1CCCN1C(=O)[C@H](CCC(=O)O)NC(=O)[C@H](CC(C)C)NC(=O)[C@@H]1CCCN1C(=O)[C@H](C)N)C(C)C)C(=O)N1CCC[C@H]1C(=O)N[C@@H](CCC(=O)O)C(=O)N[C@@H](CCC(N)=O)C(=O)N[C@@H](CCSC)C(=O)N[C@@H](C)C(=O)N[C@@H](CCC(N)=O)C(=O)N[C@@H](Cc1ccc(O)cc1)C(=O)N[C@@H](C)C(=O)N[C@@H](C)C(=O)N[C@@H](CC(=O)O)C(=O)N[C@@H](CC(C)C)C(=O)N[C@@H](CCCNC(=N)N)C(=O)N[C@@H](CCCNC(=N)N)C(=O)N[C@@H](Cc1ccc(O)cc1)C(=O)N[C@H](C(=O)N[C@@H](CC(N)=O)C(=O)N[C@@H](CCSC)C(=O)N[C@@H](CC(C)C)C(=O)N[C@H](C(=O)N[C@@H](CCCNC(=N)N)C(=O)N1CCC[C@H]1C(=O)N[C@@H](CCCNC(=N)N)C(=O)N[C@@H](Cc1ccc(O)cc1)C(N)=O)[C@@H](C)O)[C@@H](C)CC)C(=O)O [[K^13Pal]PP] (H-APLEPVYPGDNAK([γGlu-Palmitoyl])PEQMAQYAADLRRYINMLTRPRY-NH2; N-terminus assumed)
BRIN‐BD11 cell proliferation (BRIN‐BD11 beta‐cells [1]; peptide 10^−8 M): augmented
food intake in combination with exendin‐4 (C57BL/6 mice [2]; PP peptide 25 nmol/kg with exendin‐4 0.25 nmol/kg i.p., fasted mice, n = 6): additive appetite suppressive actions
food intake in overnight fasted mice, summary in discussion (C57BL/6 mice [2]; i.p., overnight fasted mice): retained impressive effects to restrict food intake

CC[C@H](C)[C@H](NC(=O)[C@H](Cc1ccc(O)cc1)NC(=O)[C@H](CCCNC(=N)N)NC(=O)[C@H](CCCNC(=N)N)NC(=O)[C@H](CC(C)C)NC(=O)[C@H](CC(=O)O)NC(=O)[C@H](C)NC(=O)[C@H](C)NC(=O)[C@H](Cc1ccc(O)cc1)NC(=O)[C@H](CCC(N)=O)NC(=O)[C@H](C)NC(=O)[C@H](CCSC)NC(=O)[C@H](CCC(N)=O)NC(=O)[C@H](CCC(=O)O)NC(=O)[C@@H]1CCCN1C(=O)[C@@H](NC(=O)[C@H](C)NC(=O)[C@H](CC(N)=O)NC(=O)[C@H](CC(=O)O)NC(=O)CNC(=O)[C@@H]1CCCN1C(=O)[C@H](Cc1ccc(O)cc1)NC(=O)[C@@H](NC(=O)[C@@H]1CCCN1C(=O)[C@H](CCC(=O)O)NC(=O)[C@@H]1CCCN1C(=O)[C@@H]1CCCN1C(=O)[C@H](C)N)C(C)C)[C@@H](C)O)C(=O)N[C@@H](CC(N)=O)C(=O)N[C@@H](CCSC)C(=O)N[C@@H](CC(C)C)C(=O)N[C@H](C(=O)N[C@@H](CCCNC(=N)N)C(=O)N1CCC[C@H]1C(=O)N[C@@H](CCCNC(=N)N)C(=O)N[C@@H](Cc1ccc(O)cc1)C(N)=O)[C@@H](C)O [[P^3]PP]
remaining at 8 h (DPP-4): > 99%

(N‐Pal)APLEPVYPGDNATPEQMAQYAADLRRYINMLTRPR‐NH2 [[N‐Pal]PP, PP analog with C‐16 palmitate via γ‐glutamyl spacer at the N‐terminal amino group]
cumulative food intake (appetite suppression) (C57BL/6 mice [2]; 200 nmol/kg i.p., overnight fasted mice, later observation points, versus saline, n = 6): mild inhibitory (p < 0.05) effect
glucose‐induced insulin secretion (plasma insulin) (C57BL/6 mice [3]): slightly decreasing (p = <0.05 to 0.01)

(N‐Pal)APPEPVYPGDNATPEQMAQYAADLRRYINMLTRPR‐NH2 [[N‐Pal,P^3]PP, PP analog with Pro^3 and N‐terminal C‐16 palmitate via γ‐glutamyl spacer]
cumulative food intake (appetite suppression) (C57BL/6 mice [2]; all doses employed (25, 75, 200 nmol/kg i.p.), overnight fasted mice, n = 6): lacked bioactivity
glucose‐induced insulin secretion (plasma insulin) (C57BL/6 mice [3]): slightly decreasing (p = <0.05 to 0.01)

CCK‐8: used for cholecystokinin (CCK) receptor activation in combination studies (DYMGWMDF; ends and bridges not checked; UniProt P06307 96-103, looked up)
food intake (appetite suppression), CCK‐8 alone (C57BL/6 mice [2]; CCK‐8 25 nmol/kg i.p., early observation points, versus saline, n = 6): impressive effects on appetite suppression (p < 0.001)
glucose disposal, exendin‐4 or CCK‐8 (C57BL/6 mice [4]): benefits
insulinotropic action, exendin‐4 or CCK‐8 (C57BL/6 mice [3]; exendin‐4 0.25 nmol/kg or CCK‐8 25 nmol/kg with glucose 18 mmol/kg i.p.): significant insulinotropic actions

glucagon‐like peptide‐1 (HAEGTFTSDVSSYLEGQAAKEFIAWLVKGR; ends and bridges not checked; UniProt P01275 98-127, looked up) [GLP‐1, positive control in proliferation and apoptosis tests]
BRIN‐BD11 cell proliferation (BRIN‐BD11 beta‐cells [1]; peptide 10^−6 M): significantly (p < 0.001) enhanced
BRIN‐BD11 cell proliferation (BRIN‐BD11 beta‐cells [1]; peptide 10^−8 M): significantly (p < 0.001) enhanced
protection against cytokine‐induced beta‐cell apoptosis (BRIN‐BD11 beta‐cells [5]): significantly (p = <0.01 to 0.001) protected against cell death
